ChEMBL document CHEMBL1130636, “PDE4 inhibitors: new xanthine analogues” (Bioorg Med Chem Lett, 1998)
Active and inactive are the calls of the source. The calls are words filed in the database; no cut-off is given here.

System: Cavia porcellus
Experiment: Inhibition of eosinophil recruitment in guinea pig lung asthma model at 10 mg/kg
Assay type: functional

SMILES | inhibition in vivo at 10 mg/kg
COc1ccc(C2CNC(=O)C2)cc1OC1CCCC1 (centres undefined) [ROLIPRAM] | 48%

Target: T1, Phosphodiesterase 4 (Homo sapiens, UniProt P27815+Q08499+Q07343+Q08493)
Experiment: Inhibition of PDE4
Assay type: protein assay

SMILES | IC50
COc1cccc(-n2c(=O)n(Cc3ccccc3)c(=O)c3[nH]cnc32)c1 | 6.01 µM
O=c1c2[nH]cnc2n(-c2cccc(Cl)c2)c(=O)n1Cc1ccccc1 | 6.55 µM
CC(C)(C)c1ccccc1-n1c(=O)n(Cc2ccccc2)c(=O)c2[nH]cnc21 | > 20 µM
Cc1ccccc1-n1c(=O)n(Cc2cccs2)c(=O)c2[nH]cnc21 | 4.2 µM
COC(=O)c1cccc(-n2c(=O)n(Cc3ccccc3)c(=O)c3[nH]cnc32)c1 | 4.08 µM
O=c1c2[nH]cnc2n(-c2ccccc2F)c(=O)n1Cc1ccccc1 | 2.4 µM
Cc1ccccc1-n1c(=O)n(Cc2ccco2)c(=O)c2[nH]cnc21 | 11.95 µM
O=c1c2[nH]cnc2n(-c2ccccc2)c(=O)n1Cc1ccccc1 | 4.8 µM

The remaining lines, values ahead:

IC50 | SMILES
7.97 µM | Cc1ccccc1-n1c(=O)n(Cc2ccccc2)c(=O)c2[nH]cnc21
20 µM | CSc1ccccc1-n1c(=O)n(Cc2ccccc2)c(=O)c2[nH]cnc21
56 µM | C[S+]([O-])c1cccc(-n2c(=O)n(Cc3ccccc3)c(=O)c3[nH]cnc32)c1 (centres undefined)
11 µM | Nc1cccc(-n2c(=O)n(Cc3ccccc3)c(=O)c3[nH]cnc32)c1
110 µM | O=C(O)c1cccc(-n2c(=O)n(Cc3ccccc3)c(=O)c3[nH]cnc32)c1
20 µM | O=c1c2[nH]cnc2n(-c2ccccc2C(F)(F)F)c(=O)n1Cc1ccccc1
100 µM | C[S+]([O-])c1ccccc1-n1c(=O)n(Cc2ccccc2)c(=O)c2[nH]cnc21 (centres undefined)

System: Cavia porcellus
Experiment: Inhibition of eosinophil recruitment in guinea pig lung asthma model at 10 mg/kg oral dose
Assay type: functional

SMILES | inhibition in vivo at 10 mg/kg
Cc1ccccc1-n1c(=O)n(Cc2cccs2)c(=O)c2[nH]cnc21 | 56%

Target: T1, Phosphodiesterase 4
Experiment: Inhibition of rolipram binding to PDE4
Assay type: protein assay

IC50 | SMILES
0.042 µM | O=c1c2[nH]cnc2n(-c2cccc(Cl)c2)c(=O)n1Cc1ccccc1

System: Mustela putorius furo
Experiment: Emetic effect in ferrets on oral administration at 10 mg/kg (No effect)
Assay type: functional, organism-based
Set-up: dose 10 mg/kg

SMILES | Activity
Cc1ccccc1-n1c(=O)n(Cc2cccs2)c(=O)c2[nH]cnc21 | inactive

System: Cavia porcellus
Experiment: Inhibition of eosinophil recruitment in guinea pig lung asthma model at 30 mg/kg oral dose
Assay type: functional

SMILES | inhibition in vivo at 30 mg/kg
Cc1ccccc1-n1c(=O)n(Cc2cccs2)c(=O)c2[nH]cnc21 | 70%

Target: T1, Phosphodiesterase 4
Experiment: Inhibition of rolipram binding
Assay type: protein assay

SMILES | IC50
COc1cccc(-n2c(=O)n(Cc3ccccc3)c(=O)c3[nH]cnc32)c1 | 0.017 µM
Cc1ccccc1-n1c(=O)n(Cc2cccs2)c(=O)c2[nH]cnc21 | 1.02 µM
COC(=O)c1cccc(-n2c(=O)n(Cc3ccccc3)c(=O)c3[nH]cnc32)c1 | 0.009 µM
O=c1c2[nH]cnc2n(-c2ccccc2F)c(=O)n1Cc1ccccc1 | 0.22 µM
Cc1ccccc1-n1c(=O)n(Cc2ccco2)c(=O)c2[nH]cnc21 | 1.1 µM
O=c1c2[nH]cnc2n(-c2ccccc2)c(=O)n1Cc1ccccc1 | 0.08 µM

More lines, now with the values ahead:

IC50 | SMILES
0.67 µM | Cc1ccccc1-n1c(=O)n(Cc2ccccc2)c(=O)c2[nH]cnc21
1.6 µM | C[S+]([O-])c1cccc(-n2c(=O)n(Cc3ccccc3)c(=O)c3[nH]cnc32)c1 (centres undefined)
0.32 µM | Nc1cccc(-n2c(=O)n(Cc3ccccc3)c(=O)c3[nH]cnc32)c1

Target: T1, Phosphodiesterase 4
Experiment: Relative inhibition of PDE4 activity and rolipram binding to PDE4
Assay type: protein assay

SMILES | Ratio
COc1cccc(-n2c(=O)n(Cc3ccccc3)c(=O)c3[nH]cnc32)c1 | 353
O=c1c2[nH]cnc2n(-c2cccc(Cl)c2)c(=O)n1Cc1ccccc1 | 156
Cc1ccccc1-n1c(=O)n(Cc2cccs2)c(=O)c2[nH]cnc21 | 4.1
COC(=O)c1cccc(-n2c(=O)n(Cc3ccccc3)c(=O)c3[nH]cnc32)c1 | 453
O=c1c2[nH]cnc2n(-c2ccccc2F)c(=O)n1Cc1ccccc1 | 10.9
Cc1ccccc1-n1c(=O)n(Cc2ccco2)c(=O)c2[nH]cnc21 | 10.9
O=c1c2[nH]cnc2n(-c2ccccc2)c(=O)n1Cc1ccccc1 | 60

More lines, now with the values ahead:

Ratio | SMILES
11.9 | Cc1ccccc1-n1c(=O)n(Cc2ccccc2)c(=O)c2[nH]cnc21
35 | C[S+]([O-])c1cccc(-n2c(=O)n(Cc3ccccc3)c(=O)c3[nH]cnc32)c1 (centres undefined)
34 | Nc1cccc(-n2c(=O)n(Cc3ccccc3)c(=O)c3[nH]cnc32)c1
